Reference: patent US8431563B2 (priority 2010, dated 2013)
Read-outs that look alike come from different tables or passages of the source.

Key:
[1] = target: T1, GKRP (Glucokinase Regulatory Protein) with human His-hepatic GK (Homo sapiens, UniProt Q14397); test: biochemical
T1 sequence (Q14397 1-625): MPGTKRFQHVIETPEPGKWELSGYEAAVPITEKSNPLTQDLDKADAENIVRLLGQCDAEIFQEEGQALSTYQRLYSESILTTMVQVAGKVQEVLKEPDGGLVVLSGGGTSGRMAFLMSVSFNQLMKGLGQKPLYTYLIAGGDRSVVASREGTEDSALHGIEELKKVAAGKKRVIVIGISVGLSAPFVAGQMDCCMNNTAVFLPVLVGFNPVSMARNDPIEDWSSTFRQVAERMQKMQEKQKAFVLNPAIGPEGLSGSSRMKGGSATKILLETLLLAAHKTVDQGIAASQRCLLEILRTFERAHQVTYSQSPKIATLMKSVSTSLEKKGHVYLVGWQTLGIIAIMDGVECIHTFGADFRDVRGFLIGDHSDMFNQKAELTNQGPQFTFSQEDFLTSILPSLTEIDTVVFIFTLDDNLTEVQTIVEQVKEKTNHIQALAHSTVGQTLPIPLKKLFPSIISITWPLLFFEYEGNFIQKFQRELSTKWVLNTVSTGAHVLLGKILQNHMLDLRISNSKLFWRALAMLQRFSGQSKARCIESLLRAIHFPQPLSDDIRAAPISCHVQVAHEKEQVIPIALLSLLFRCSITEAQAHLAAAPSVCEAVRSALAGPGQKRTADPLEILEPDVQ
Protocol: GKRP LC MS/MS-2 Biochemical Assay
This assay is used to directly measure the formation of ^13C-glucose-6-phosphate from ^13C-glucose by LC MS/MS. Begin by preparing the following solutions: Compound Buffer (CB): 50 mM Tris, pH 7.5/4 mM MgCl2/6% DMSO/fresh 10 mM DTT from 1M frozen stock. Enzyme Buffer (EB): 50 mM Tris, pH 7.5/4 mM MgCl2/6% DMSO/fresh 0.1% BSA/fresh 0.01% Brij-35 (10% BSA and 1% Brij-35 stock). GK (Glucokinase) Working Stock (5×): Dilute human His-hepatic GK to 30 nM in EB buffer. […] After 30 minutes add 10 μl of GK Working Stock (5×). Re-seal the plate and incubate for another 30 minutes at room temperature while mixing. After the second 30 minutes, stop the reaction by the addition of 50 μl of 100% acetonitrile, seal, and mix for 5-10 minutes. Run 10 μl of this sample through the LC MS/MS (API 3200, Applied Biosystems, Carlsbad, Calif.).

[2] = target: T2, interaction between glucokinase (GK) and glucokinase regulatory protein (GKRP) (Homo sapiens, UniProt Q14397); test: biochemical; format: binding
T2 sequence (Q14397 1-625): T1 sequence (Q14397 1-625)
Protocol: GK-GKRP Binding Assay Protocol
This assay is used to directly measure the interaction between glucokinase (GK) and glucokinase regulatory protein (GKRP). Begin by preparing the following solutions. Assay Buffer: 20 mM Tris, pH 7.5/0.05% BSA/1 mM DTT/1 μM sorbitol-6-phosphate. […] Combine the following reagents in a white 96-well half area plate. Pipette 14 μl of the diluted avi-tagged GKRP into each well. Add 1 μl of compound to be tested and incubate at room temperature for 20 minutes. After 20 minutes, add 5 μl of assay buffer containing 6 nM GK-fluorescein. […] Incubate in a dark room for 2 hours at room temperature. After 2 hours read the plate using an Envision plate reader (Perkin Elmer, Waltham Mass.).

[3] = 13C-glucose-6-phosphate formation, 280 nM GKRP (10×), 30 nM GK (5×), read-out: GK-GKRP EC50 (LC MS/MS-2)
[4] = avi-tagged GKRP, GK-fluorescein, AlphaScreen beads, read-out: GK-GKRP IC50 (Binding)

Structure (SMILES)	EC50 [1, 3] [nM]	IC50 [2, 4] [nM]	further results
CC(O)(c1ccc(N2CCN(S(=O)(=O)c3cccs3)C[C@@H]2CN2[C@@H]3COC[C@H]2CC(=O)C3)cc1)C(F)(F)F (stereo partly drawn) [Example 106, 9-(((2S)-4-(2-thiophenylsulfonyl)-1-(4-(2,2,2-trifluoro-1-hydroxy-1-methylethyl)phenyl)-2-piperazinyl)methyl)-3-oxa-9-azabicyclo[3.3.1]nonan-7-one]	97	35	
CC(C)C1C(=O)NCCN1C[C@H]1CN(S(=O)(=O)c2ccc(N)s2)CCN1c1ncc(C(O)(C(F)(F)F)C(F)(F)F)cn1 (single isomer, unassigned) [Example 184 Peak #1]	12	1	
C[C@H]1COCCN1C[C@H]1CN(S(=O)(=O)c2ccc(N)nc2)CCN1c1ncc(C(O)(C(F)(F)F)C(F)(F)F)cn1 [Example 128, 2-(2-((2S)-4-((6-amino-3-pyridinyl)sulfonyl)-2-(((3S)-3-methyl-4-morpholinyl)methyl)-1-piperazinyl)-5-pyrimidinyl)-1,1,1,3,3,3-hexafluoro-2-propanol]	34	27	
CC(=O)N(C[C@H]1CN(S(=O)(=O)c2cccs2)CCN1c1ccc(C(C)(O)C(F)(F)F)cc1)C(C)C (mixture of isomers) [Example 196, N-(1-methylethyl)-N-(((2S)-4-(2-thiophenylsulfonyl)-1-(4-(2,2,2-trifluoro-1-hydroxy-1-methylethyl)phenyl)-2-piperazinyl)methyl)acetamide]	391	466	
C[C@H]1COCCN1C[C@H]1CN(S(=O)(=O)c2ccc(N)nc2)CCN1c1ncc(C(C)(O)C(F)(F)F)cn1 (mixture of isomers) [Example 129, 2-(2-((2S)-4-((6-amino-3-pyridinyl)sulfonyl)-2-(((3S)-3-methyl-4-morpholinyl)methyl)-1-piperazinyl)-5-pyrimidinyl)-1,1,1-trifluoro-2-propanol]	99	36	
Cn1cnc(COC[C@H]2CN(S(=O)(=O)c3cccs3)CCN2c2ccc(C(C)(O)C(F)(F)F)cc2)c1 (single isomer, unassigned) [Example 119 Peak #1]	235	972	
CC(O)(c1ccc(N2CCN(S(=O)(=O)c3cccs3)C[C@@H]2CN(Cc2cccnc2)S(C)(=O)=O)cc1)C(F)(F)F (mixture of isomers) [Example 221, N-(3-pyridinylmethyl)-N-(((2S)-4-(2-thiophenylsulfonyl)-1-(4-(2,2,2-trifluoro-1-hydroxy-1-methylethyl)phenyl)-2-piperazinyl)methyl)methanesulfonamide]	41	13	
CC(C)N(C[C@H]1CN(S(=O)(=O)c2cccs2)CCN1c1ccc(C(C)(O)C(F)(F)F)cc1)C(C)C (mixture of isomers) [Example 194, 2-(4-((2S)-2-((bis(1-methylethyl)amino)methyl)-4-(2-thiophenylsulfonyl)-1-piperazinyl)phenyl)-1,1,1-trifluoro-2-propanol]		205	EC50 ([1]; GK-GKRP EC50 (LC MS/MS-2), 13C-glucose-6-phosphate formation, 280 nM GKRP (10×), 30 nM GK (5×)): 179 nM
CC(C)N(C[C@H]1CN(S(=O)(=O)c2cccs2)CCN1c1ccc(C(C)(O)C(F)(F)F)cc1)S(=O)(=O)N(C)C (mixture of isomers) [Example 209, N,N-dimethyl-N′-(1-methylethyl)-N′-(((2R)-4-(2-thiophenylsulfonyl)-1-(4-(2,2,2-trifluoro-1-hydroxy-1-methylethyl)phenyl)-2-piperazinyl)methyl)sulfamide]	23	7	
C[C@@H](C[C@H]1CN(S(=O)(=O)c2cccs2)CCN1c1ccc([C@](C)(O)C(F)(F)F)cc1)NC1COC1 (racemic) [Example 148, 1,1,1-trifluoro-2-(4-((2S)-2-(2-(3-oxetanylamino)propyl)-4-(2-thiophenylsulfonyl)-1-piperazinyl)phenyl)-2-propanol]			EC50 ([1]; GK-GKRP EC50 (LC MS/MS-2)): 529 nM; IC50 ([2]; GK-GKRP IC50 (Binding)): 1120 nM
CCC1COCCN1C[C@H]1CN(S(=O)(=O)c2cccs2)CCN1c1ccc(C(C)(O)C(F)(F)F)cc1 (mixture of isomers) [Example 143, 2-(4-((2S)-2-((3-ethyl-4-morpholinyl)methyl)-4-(2-thiophenylsulfonyl)-1-piperazinyl)phenyl)-1,1,1-trifluoro-2-propanol]	36	80	
CC(O)(c1ccc(N2CCN(S(=O)(=O)c3cccs3)C[C@@H]2CN2C3COCC2C(O)C3)cc1)C(F)(F)F (single isomer, unassigned; peak #4) [Example 77 Peak #4]	65	42	
CC(C)C1C(=O)NCCN1C[C@H]1CN(S(=O)(=O)c2ccc(N)s2)CCN1c1ncc(C(O)(C(F)(F)F)C(F)(F)F)cn1 (single isomer, unassigned) [Example 184 Peak #2]	25		
C[C@H]1COCCN1C[C@H]1CN(S(=O)(=O)c2cccs2)CCN1c1ccc(C(O)(CO)C(F)(F)F)cc1 (mixture of isomers) [Example 83, 3,3,3-trifluoro-2-(4-((2S)-2-(((3S)-3-methyl-4-morpholinyl)methyl)-4-(2-thiophenylsulfonyl)-1-piperazinyl)phenyl)-1,2-propanediol]	19		
CN(Cc1cn(C)cn1)C[C@H]1CN(S(=O)(=O)c2cccs2)CCN1c1ccc(C(C)(O)C(F)(F)F)cc1 (mixture of isomers) [Example 121, 1,1,1-trifluoro-2-(4-((2S)-2-((methyl((1-methyl-1H-imidazol-4-yl)methyl)amino)methyl)-4-(2-thiophenylsulfonyl)-1-piperazinyl)phenyl)-2-propanol]		521	
COc1cccc(CC2CN(S(=O)(=O)c3cccs3)CCN2c2ccc(C(O)(C(F)(F)F)C(F)(F)F)cc2)c1 (racemic) [Example 173, 1,1,1,3,3,3-hexafluoro-2-(4-(2-(3-methoxybenzyl)-4-(thiophen-2-ylsulfonyl)piperazin-1-yl)phenyl)-2-propanol]		542	
CCC(O)C#Cc1cc(C(O)(C(F)(F)F)C(F)(F)F)ccc1N1CCN(S(=O)(=O)c2cccs2)CC1 (racemic) [Example 154, 1-(2-(4-(2-thiophenylsulfonyl)-1-piperazinyl)-5-(2,2,2-trifluoro-1-hydroxy-1-(trifluoromethyl)ethyl)phenyl)-1-pentyn-3-ol]		1060	
CC(C)C(O)C#Cc1cc(C(O)(C(F)(F)F)C(F)(F)F)ccc1N1CCN(S(=O)(=O)c2cccs2)CC1 (racemic) [Example 156, 4-methyl-1-(2-(4-(2-thiophenylsulfonyl)-1-piperazinyl)-5-(2,2,2-trifluoro-1-hydroxy-1-(trifluoromethyl)ethyl)phenyl)-1-pentyn-3-ol]		2860	
CCC(O)C#Cc1cc(C(O)(C(F)(F)F)C(F)(F)F)ccc1N1CCC(S(=O)(=O)c2ccccc2)CC1 (racemic) [Example 162, 1-(2-(4-(phenylsulfonyl)-1-piperidinyl)-5-(2,2,2-trifluoro-1-hydroxy-1-(trifluoromethyl)ethyl)phenyl)-1-pentyn-3-ol]		5180	
CC(O)(c1ccc(N2CCN(S(=O)(=O)c3cccs3)C[C@@H]2CN(C2CCC2)S(=O)(=O)c2cccnc2)cc1)C(F)(F)F (mixture of isomers) [Example 213, N-cyclobutyl-N-(((2R)-4-(2-thiophenylsulfonyl)-1-(4-(2,2,2-trifluoro-1-hydroxy-1-methylethyl)phenyl)-2-piperazinyl)methyl)-3-pyridinesulfonamide]		928	
